Assays:
SU-DHL-6-epst = assay: Combination study of Compound 1 or CAL-101 and a second therapeutic agent (Synergy Score, CI50); type: cell-based
DoHH2 tumor = type: in vivo
Protocol: In particular, tolerability of the combination treatment was assessed in DoHH2 tumor bearing CB17.SCID female mice (a follicular lymphoma subcutaneous model). […] Plasma samples were collected on day 7 (trough, 1, 2, 4, and 6 h post dose) and on day 14 (2 h post final dose).

[1] = tested on: Compound 1-resistant SU-DHL-4 clones; assay: CTG (Cell Titer Glo) IC50, Compound 1-resistant clones; type: cell-based; conditions: Compound 1-resistant clones versus control cells, FIG. 10
Protocol: The DMSO stock for each compound was diluted to 5 mM or 1 mM with DMSO. A 1:1000 dilution was performed into the plated cells (10 uL) for a final of 1 uM or 5 uM (final DMSO […]). Cells were counted 2 times per week and cell densities were adjusted back to 2.5×10^5 c/mL as needed. Media/Compound was replenished as needed and Media/Compound was replaced 1× per week. Compound treatment lasted for 28 days. Compound was washed out for 1 week and cells were subsequently used in assays to determine resistance after 4 weeks of treatment.
The cell line pool was treated with compound for an additional 28 days prior to subcloning. Altogether, the cell line pool was under selective pressure for a total of 8 weeks.
Cell lines were subcloned at 3, 1, and 0.3 cells per well (cpw). 1:10 of conditioned medium (CM) was included in medium in addition to corresponding DMSO control or compound. During subcloning optimization experiments, the SU-DHL-4 cell line could only be subcloned in the presence of 1:10 conditioned medium. […]
All cell lines subcloned grew out. […] Once expanded in a 24 well plate, the 12 clones per cell line were evaluated for viability by flow using the Dead_Live kit (Invitrogen #L23101).
Clones for parent, DMSO and Compound 1-R cell lines were selected based on their P1 vs P2 distribution determined by FSCH vs SSCH scatter plot. […]

[2] = Tolerability and pharmacokinetics of Compound 1 with dexamethasone in non-tumor bearing mice; type: in vivo
Protocol: The effects of a combination of Compound 1 and dexamethasone were assessed in vivo in non-tumor bearing mice. Dexamethasone is an inducer of CYP2B6 and CYP3A4 and thus might be expected to decrease exposure of Compound 1. Tolerability of the combination was assessed in non-tumor bearing CD17.SCID female mice. Treatment was carried out for 14 days using the following treatment groups: 1) Vehicle 1 (5% NMP+95% PEG400)+Vehicle 2 (saline); 2) Compound 1 (50 mg/kg, QD, PO)+Vehicle 2; 3) Vehicle 1+Dex 1 (5 mg/kg, Q3D, IP); 4) Compound 1+Dex 1; 5) Vehicle 1+Dex 2 (1 mg/kg, Q3D, IP); 6) Compound 1+Dex 2. PEG400 refers to polyethylene glycol-400. NMP refers to N-methyl-2-pyrrolidone. Dex refers to dexamethasone. Q3D refers to administration every third day. PO refers to oral administration. IP refers to intraperitoneal administration. Plasma samples were collected on day 14 at the trough, 1, 2, 4, and 6 h post dose for pharmacokinetic analysis.

SUDHL6 = assay: Combination study of Example 1 (data not shown); type: cell-based; conditions: combination with Compound 1, SUDHL6 cell line
Description: The method is described as follows.
Additive effect is CI=1.0. […] Antagonistic effect is CI>1.0.

Mino = assay: Combination study, ATPLite 72 h, dose matrix (Synergy Score, CI50); conditions: combination with Compound 1
Protocol: (§1) Cells are thawed from a liquid nitrogen preserved state. Once cells have been expanded and divide at their expected doubling times, screening begins. Cells are seeded in growth media in either black 1536-well or 384-well tissue culture treated plates. Cells are then equilibrated in assay plates via centrifugation and placed in incubators attached to the Dosing Modules at 37° C. for 24 hours before treatment. […] These Tzero (To) plates are read using ultra-sensitive luminescence on Envision plate readers (Perkin Elmer). Treated assay plates are incubated with compound for 72 hours. After 72 hours, plates are developed for endpoint analysis using ATPLite. All data points are collected via automated processes, quality controlled and analyzed using Zalicus software.
(§2) where T is treated cell count and V is untreated (vehicle) cell count (at 72 hours). I ranges from 0% (when T=V) to 100% (when T=0). […] The measure of effect in the experiment can be the inhibition of cellular response relative to the untreated level (vehicle alone). […] The inhibition ranges from 0% at the untreated level to 100% when T=0. Inhibition levels are negative for agents that actually increase levels. Other effect measures, such as an activity ratio r=T/V may be more appropriate for some assays. When activity ratios (e.g, fold increase over stimulated control) are being used, the effect can be measured using an induction 1=ln(T/V). With this definition, all effect expressions are the same as for inhibition.
(§3) Growth Inhibition (GI) is used as a measure of cell viability. […] A GI reading of 100% represents complete growth inhibition—T72 compound-treated and T0 vehicle signals are matched. […] A GI reading of 200% represents complete death of all cells in the culture well. Compounds reaching an activity plateau of GI 200% are considered cytotoxic. GI is calculated by applying the following test and equation:
(§4) Combination analysis data were collected in a 6×6 dose matrix. Synergy is calculated by comparing a combination's response to those of its single compound, against the drug-with-itself dose-additive reference model. Deviations from dose additivity may be assessed visually on an isobologram or numerically with a Combination Index (CI). […] Additive effect is CI=1.0. […] Antagonistic effect is CI>1.0.
(§5) To measure combination effects in excess of Loewe additivity, a scalar measure to characterize the strength of synergistic interaction termed the Synergy Score is devised. The Synergy Score is calculated as:
(§6) The fractional inhibition for each component agent and combination point in the matrix is calculated relative to the median of all vehicle-treated control wells. The Synergy Score equation integrates the experimentally-observed activity volume at each point in the matrix in excess of a model surface numerically derived from the activity of the component agents using the Loewe model for additivity. Additional terms in the Synergy Score equation (above) are used to normalize for various dilution factors used for individual agents and to allow for comparison of synergy scores across an entire experiment. The inclusion of positive inhibition gating or an Idata multiplier removes noise near the zero effect level, and biases results for synergistic interactions at that occur at high activity levels.
(§7) Loewe Volume (Loewe Vol) is used to assess the overall magnitude of the combination interaction in excess of the Loewe additivity model. Loewe Volume is particularly useful when distinguishing synergistic increases in a phenotypic activity (positive Loewe Volume) versus synergistic antagonisms (negative Loewe Volume). […] This model defines additivity as a non-synergistic combination interaction where the combination dose matrix surface should be indistinguishable from either drug crossed with itself.

KARPAS-299 = assay: as above; conditions: combination with Compound 1
Protocol: as §1, §2, §3, §4, §5, §6, §7

RPMI-8226 = assay: as above; conditions: combination with Compound 1
GRANTA-519 = assay: as above; conditions: combination with Compound 1

## C[C@H](Nc1ncnc2[nH]cnc12)c1cc2cccc(Cl)c2c(=O)n1-c1ccccc1 [Compound 1, (S)-3-(1-((9H-purin-6-yl)amino)ethyl)-8-chloro-2-phenylisoquinolin-1(2H)-one]
SU-DHL-6-epst; combination with Dexamethasone
  CI50 growth inhibition: T (T=0.5 to <0.7)
  CI50 inhibition: T (T=0.5 to <0.7)
  Synergy Score growth inhibition: A3 (A3=>3)
  Synergy Score inhibition: A2 (A2=1 to <3)
SU-DHL-6-epst; combination with LEE011
  CI50 growth inhibition: S (S=0.01 to <0.5)
  Synergy Score growth inhibition: A2 (A2=1 to <3)
  Synergy Score inhibition: A1 (A1=0.0001 to <1)
SU-DHL-6-epst; combination with PCI-32765
  CI50 growth inhibition: S (S=0.01 to <0.5)
  CI50 inhibition: S (S=0.01 to <0.5)
  Synergy Score growth inhibition: A3 (A3=>3)
  Synergy Score inhibition: A2 (A2=1 to <3)
SU-DHL-6-epst; combination with PD-0332991
  CI50 growth inhibition: S (S=0.01 to <0.5)
  CI50 inhibition: S (S=0.01 to <0.5)
  Synergy Score growth inhibition: A2 (A2=1 to <3)
  Synergy Score inhibition: A2 (A2=1 to <3)
DoHH2 tumor; Compound 1 50 mg/kg QD PO plus dexamethasone 5 mg/kg Q3D IP, after 12 days, versus vehicle, Compound 1 alone or dexamethasone alone, FIG. 8
  tumor volume: lower
DoHH2 tumor; Compound 1 50 mg/kg QD in combination with dexamethasone 5 mg/kg Q3D IP, compared to either monotherapy
  tumor growth inhibition: greater tumor growth inhibition
DoHH2 tumor; co-administration of dexamethasone and Compound 1 in mice
  tolerability of the combination (body weight): tolerable
[1]
  average IC50 for inhibition of the resistant cells versus control cells: higher
[2]; 50 mg/kg Compound 1 PO in combination with dexamethasone 5 mg/kg Q3D, versus Compound 1 alone
  Compound 1 plasma exposure: decrease
[2]; 50 mg/kg Compound 1 plus 1 mg/kg dexamethasone (Q3D) versus 50 mg/kg Compound 1 alone
  mean plasma concentration of Compound 1: relatively similar
[2]; co-administered with higher dose of dexamethasone, 5 mg/kg
  decrease of Compound 1 plasma exposure: about 30%
[2]; single agent versus combination with dexamethasone 1 mg/kg
  degree of Compound 1 exposure: similar

## C[C@@H]1C[C@H]2[C@@H]3CCC4=CC(=O)C=C[C@]4(C)[C@@]3(F)[C@@H](O)C[C@]2(C)[C@@]1(O)C(=O)CO [dexamethasone, (8S,9R,10S,11S,13S,14S,16R,17R)-9-Fluoro-11,17-dihydroxy-17-(2-hydroxyacetyl)-10,13,16-trimethyl-6,7,8,9,10,11,12,13,14,15,16,17-dodecahydro-3H-cyclopenta[a]phenanthren-3-one]
SUDHL6
  synergy of the combination: significant synergy
Mino
  CI50 growth inhibition: S (S=0.01 to <0.5)
  CI50 inhibition: S (S=0.01 to <0.5)
  Synergy Score growth inhibition: A3 (A3=>3)
  Synergy Score inhibition: A2 (A2=1 to <3)
KARPAS-299
  Synergy Score growth inhibition: A1 (A1=0.0001 to <1)
  Synergy Score inhibition: A1 (A1=0.0001 to <1)
RPMI-8226
  CI50 growth inhibition: S (S=0.01 to <0.5)
  CI50 inhibition: U (U=0.7 to <1)
  Synergy Score growth inhibition: A3 (A3=>3)
  Synergy Score inhibition: A2 (A2=1 to <3)
GRANTA-519
  CI50 growth inhibition: S (S=0.01 to <0.5)
  Synergy Score growth inhibition: A3 (A3=>3)
  Synergy Score inhibition: A1 (A1=0.0001 to <1)
